# Data published in ChEMBL document CHEMBL5465560, “Selectivity Literature for EUbOPEN Chemogenomic Library” (2024).
# What was measured:
# [1] = biological target: 1-phosphatidylinositol 3-phosphate 5-kinase (Homo sapiens) (UniProt Q9Y2I7); assay: Selectivity interaction (KinomeScan (DiscoverX)) EUB0001049a PIKFYVE; details: at 1 µM
# [2] = biological target: Serine/threonine-protein kinase 16 (Homo sapiens, UniProt O75716); assay: Selectivity interaction (KinomeScan (DiscoverX)) EUB0001049a STK16; details: at 1 µM
# [3] = biological target: Casein kinase II subunit alpha (Homo sapiens, UniProt P68400); assay: Selectivity interaction (KinomeScan (DiscoverX)) EUB0001049a CSNK2A1; details: at 1 µM
# [4] = biological target: T1, Serine/threonine-protein kinase tousled-like 1 (Homo sapiens) (UniProt Q9UKI8); assay: Selectivity interaction (KinomeScan (DiscoverX)) EUB0000666a TLK1; details: at 10 µM
# T1 sequence (whole entry): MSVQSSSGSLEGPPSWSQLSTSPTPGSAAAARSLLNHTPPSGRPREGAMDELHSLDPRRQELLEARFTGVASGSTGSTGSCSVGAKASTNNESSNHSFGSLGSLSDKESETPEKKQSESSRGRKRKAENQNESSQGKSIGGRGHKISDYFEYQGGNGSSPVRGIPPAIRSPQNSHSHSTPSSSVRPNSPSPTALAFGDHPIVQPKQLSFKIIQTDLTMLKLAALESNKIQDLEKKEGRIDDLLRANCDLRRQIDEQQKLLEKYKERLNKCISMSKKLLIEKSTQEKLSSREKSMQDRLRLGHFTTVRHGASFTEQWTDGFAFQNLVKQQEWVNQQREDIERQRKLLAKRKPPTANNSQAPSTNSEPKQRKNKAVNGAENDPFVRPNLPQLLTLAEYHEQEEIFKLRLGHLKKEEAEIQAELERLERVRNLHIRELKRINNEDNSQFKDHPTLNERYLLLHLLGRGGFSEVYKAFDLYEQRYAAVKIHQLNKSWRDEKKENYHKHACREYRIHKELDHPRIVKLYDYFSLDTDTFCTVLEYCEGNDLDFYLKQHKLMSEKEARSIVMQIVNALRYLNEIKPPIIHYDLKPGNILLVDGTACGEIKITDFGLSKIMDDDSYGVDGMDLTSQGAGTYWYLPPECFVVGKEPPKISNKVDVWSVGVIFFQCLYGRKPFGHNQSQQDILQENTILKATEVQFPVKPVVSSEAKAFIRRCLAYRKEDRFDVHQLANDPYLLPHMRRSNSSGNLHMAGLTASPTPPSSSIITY
# [5] = biological target: T2, Tyrosine-protein kinase Tec (Homo sapiens) (UniProt P42680); assay: Selectivity interaction (KinomeScan (DiscoverX)) EUB0001619a TEC; details: at 1 µM
# T2 sequence (whole entry): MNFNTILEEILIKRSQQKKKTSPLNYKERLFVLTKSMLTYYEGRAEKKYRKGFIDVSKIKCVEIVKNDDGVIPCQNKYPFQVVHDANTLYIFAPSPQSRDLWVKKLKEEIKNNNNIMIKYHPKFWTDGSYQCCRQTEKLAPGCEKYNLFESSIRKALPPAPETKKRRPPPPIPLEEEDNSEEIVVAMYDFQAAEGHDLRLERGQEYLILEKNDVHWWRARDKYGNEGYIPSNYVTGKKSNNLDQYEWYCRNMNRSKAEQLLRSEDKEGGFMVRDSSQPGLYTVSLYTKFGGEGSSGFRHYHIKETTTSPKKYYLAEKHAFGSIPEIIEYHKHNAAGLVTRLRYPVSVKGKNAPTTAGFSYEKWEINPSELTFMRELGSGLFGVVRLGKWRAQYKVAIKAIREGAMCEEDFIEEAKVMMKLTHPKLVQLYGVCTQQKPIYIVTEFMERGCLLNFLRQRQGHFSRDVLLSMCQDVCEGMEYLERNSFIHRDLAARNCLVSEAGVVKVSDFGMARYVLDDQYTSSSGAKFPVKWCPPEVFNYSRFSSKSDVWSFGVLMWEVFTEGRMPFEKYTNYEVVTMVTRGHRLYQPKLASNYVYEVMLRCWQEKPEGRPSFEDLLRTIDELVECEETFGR
# [6] = biological target: T3, Protein kinase C iota type (Homo sapiens) (UniProt P41743); assay: Selectivity interaction (Upstate Kinase Profiler service (Millipore)) EUB0000056c PRKCI; details: at 1 µM
# T3 sequence (whole entry): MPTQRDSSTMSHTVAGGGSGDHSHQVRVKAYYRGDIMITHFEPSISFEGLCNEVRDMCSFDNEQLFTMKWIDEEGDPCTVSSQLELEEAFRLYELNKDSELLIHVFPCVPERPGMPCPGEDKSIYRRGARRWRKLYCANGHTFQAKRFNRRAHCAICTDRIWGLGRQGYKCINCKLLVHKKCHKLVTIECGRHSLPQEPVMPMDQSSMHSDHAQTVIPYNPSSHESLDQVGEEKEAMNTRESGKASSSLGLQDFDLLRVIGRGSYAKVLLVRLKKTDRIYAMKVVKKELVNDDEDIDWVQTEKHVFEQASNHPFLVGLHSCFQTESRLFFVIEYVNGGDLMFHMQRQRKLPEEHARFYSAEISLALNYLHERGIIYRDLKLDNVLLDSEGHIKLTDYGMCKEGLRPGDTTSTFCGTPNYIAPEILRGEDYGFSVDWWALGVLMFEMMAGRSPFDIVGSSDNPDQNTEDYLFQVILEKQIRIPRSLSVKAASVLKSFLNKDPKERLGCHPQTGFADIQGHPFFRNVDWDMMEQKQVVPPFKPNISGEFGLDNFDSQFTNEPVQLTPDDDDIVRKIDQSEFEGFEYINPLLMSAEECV
# [7] = biological target: T4, Serine/threonine-protein kinase Chk1 (Homo sapiens) (UniProt O14757); assay: Selectivity interaction (Upstate Kinase Profiler service (Millipore)) EUB0000056c CHEK1; details: at 1 µM
# T4 sequence (whole entry): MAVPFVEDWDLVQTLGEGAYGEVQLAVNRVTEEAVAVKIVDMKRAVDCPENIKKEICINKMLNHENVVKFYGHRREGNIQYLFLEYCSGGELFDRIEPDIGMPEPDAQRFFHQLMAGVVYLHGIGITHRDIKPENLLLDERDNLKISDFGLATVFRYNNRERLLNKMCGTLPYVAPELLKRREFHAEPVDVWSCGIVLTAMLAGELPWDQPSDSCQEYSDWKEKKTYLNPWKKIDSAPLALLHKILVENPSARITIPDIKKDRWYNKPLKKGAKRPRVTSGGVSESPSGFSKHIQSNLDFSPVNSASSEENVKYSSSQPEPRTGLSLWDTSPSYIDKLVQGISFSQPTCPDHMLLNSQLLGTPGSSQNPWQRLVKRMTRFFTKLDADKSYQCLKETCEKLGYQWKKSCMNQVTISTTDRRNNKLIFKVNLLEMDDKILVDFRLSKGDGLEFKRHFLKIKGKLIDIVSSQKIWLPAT
# [8] = biological target: Serine/threonine-protein kinase WNK2 (Homo sapiens) (UniProt Q9Y3S1); assay: Selectivity interaction (KinomeScan (DiscoverX)) EUB0000695a WNK2; details: at 100 nM
# [9] = biological target: Phosphatidylinositol 4,5-bisphosphate 3-kinase catalytic subunit gamma isoform (Homo sapiens) (UniProt P48736); assay: Selectivity interaction (KinomeScan (DiscoverX)) EUB0000695a PIK3CG; details: at 100 nM
# [10] = biological target: Serine/threonine-protein kinase Nek4 (Homo sapiens) (UniProt P51957); assay: Selectivity interaction (Kinase panel (Z-LYTE Assay)) EUB0001632a NEK4; details: at 10 µM
# Chain of Serine/threonine-protein kinase Nek4 (Homo sapiens) (P51957 whole entry, looked up): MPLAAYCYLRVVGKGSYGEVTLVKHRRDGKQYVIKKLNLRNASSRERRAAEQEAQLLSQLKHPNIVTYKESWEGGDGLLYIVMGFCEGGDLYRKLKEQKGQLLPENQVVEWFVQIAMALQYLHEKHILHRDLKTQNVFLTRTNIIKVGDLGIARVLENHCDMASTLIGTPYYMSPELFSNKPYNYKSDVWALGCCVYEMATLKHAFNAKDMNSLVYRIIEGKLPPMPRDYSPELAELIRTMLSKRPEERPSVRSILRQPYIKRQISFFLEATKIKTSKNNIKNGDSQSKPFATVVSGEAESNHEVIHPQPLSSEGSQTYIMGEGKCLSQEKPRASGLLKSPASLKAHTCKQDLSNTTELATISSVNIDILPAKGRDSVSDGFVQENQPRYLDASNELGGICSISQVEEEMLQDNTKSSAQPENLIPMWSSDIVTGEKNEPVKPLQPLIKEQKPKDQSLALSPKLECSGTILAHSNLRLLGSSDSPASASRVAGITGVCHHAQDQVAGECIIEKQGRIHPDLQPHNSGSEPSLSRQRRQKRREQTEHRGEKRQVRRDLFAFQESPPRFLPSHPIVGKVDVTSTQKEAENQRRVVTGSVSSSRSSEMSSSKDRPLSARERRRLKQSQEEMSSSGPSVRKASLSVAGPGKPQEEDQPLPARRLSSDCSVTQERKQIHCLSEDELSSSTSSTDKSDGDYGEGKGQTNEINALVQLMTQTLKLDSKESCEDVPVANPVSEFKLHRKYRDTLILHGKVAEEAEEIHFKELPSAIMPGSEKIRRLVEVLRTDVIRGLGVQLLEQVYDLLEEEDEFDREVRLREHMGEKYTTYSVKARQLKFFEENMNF
# Chain of Serine/threonine-protein kinase WNK2 (Homo sapiens) (Q9Y3S1 whole entry, canonical isoform): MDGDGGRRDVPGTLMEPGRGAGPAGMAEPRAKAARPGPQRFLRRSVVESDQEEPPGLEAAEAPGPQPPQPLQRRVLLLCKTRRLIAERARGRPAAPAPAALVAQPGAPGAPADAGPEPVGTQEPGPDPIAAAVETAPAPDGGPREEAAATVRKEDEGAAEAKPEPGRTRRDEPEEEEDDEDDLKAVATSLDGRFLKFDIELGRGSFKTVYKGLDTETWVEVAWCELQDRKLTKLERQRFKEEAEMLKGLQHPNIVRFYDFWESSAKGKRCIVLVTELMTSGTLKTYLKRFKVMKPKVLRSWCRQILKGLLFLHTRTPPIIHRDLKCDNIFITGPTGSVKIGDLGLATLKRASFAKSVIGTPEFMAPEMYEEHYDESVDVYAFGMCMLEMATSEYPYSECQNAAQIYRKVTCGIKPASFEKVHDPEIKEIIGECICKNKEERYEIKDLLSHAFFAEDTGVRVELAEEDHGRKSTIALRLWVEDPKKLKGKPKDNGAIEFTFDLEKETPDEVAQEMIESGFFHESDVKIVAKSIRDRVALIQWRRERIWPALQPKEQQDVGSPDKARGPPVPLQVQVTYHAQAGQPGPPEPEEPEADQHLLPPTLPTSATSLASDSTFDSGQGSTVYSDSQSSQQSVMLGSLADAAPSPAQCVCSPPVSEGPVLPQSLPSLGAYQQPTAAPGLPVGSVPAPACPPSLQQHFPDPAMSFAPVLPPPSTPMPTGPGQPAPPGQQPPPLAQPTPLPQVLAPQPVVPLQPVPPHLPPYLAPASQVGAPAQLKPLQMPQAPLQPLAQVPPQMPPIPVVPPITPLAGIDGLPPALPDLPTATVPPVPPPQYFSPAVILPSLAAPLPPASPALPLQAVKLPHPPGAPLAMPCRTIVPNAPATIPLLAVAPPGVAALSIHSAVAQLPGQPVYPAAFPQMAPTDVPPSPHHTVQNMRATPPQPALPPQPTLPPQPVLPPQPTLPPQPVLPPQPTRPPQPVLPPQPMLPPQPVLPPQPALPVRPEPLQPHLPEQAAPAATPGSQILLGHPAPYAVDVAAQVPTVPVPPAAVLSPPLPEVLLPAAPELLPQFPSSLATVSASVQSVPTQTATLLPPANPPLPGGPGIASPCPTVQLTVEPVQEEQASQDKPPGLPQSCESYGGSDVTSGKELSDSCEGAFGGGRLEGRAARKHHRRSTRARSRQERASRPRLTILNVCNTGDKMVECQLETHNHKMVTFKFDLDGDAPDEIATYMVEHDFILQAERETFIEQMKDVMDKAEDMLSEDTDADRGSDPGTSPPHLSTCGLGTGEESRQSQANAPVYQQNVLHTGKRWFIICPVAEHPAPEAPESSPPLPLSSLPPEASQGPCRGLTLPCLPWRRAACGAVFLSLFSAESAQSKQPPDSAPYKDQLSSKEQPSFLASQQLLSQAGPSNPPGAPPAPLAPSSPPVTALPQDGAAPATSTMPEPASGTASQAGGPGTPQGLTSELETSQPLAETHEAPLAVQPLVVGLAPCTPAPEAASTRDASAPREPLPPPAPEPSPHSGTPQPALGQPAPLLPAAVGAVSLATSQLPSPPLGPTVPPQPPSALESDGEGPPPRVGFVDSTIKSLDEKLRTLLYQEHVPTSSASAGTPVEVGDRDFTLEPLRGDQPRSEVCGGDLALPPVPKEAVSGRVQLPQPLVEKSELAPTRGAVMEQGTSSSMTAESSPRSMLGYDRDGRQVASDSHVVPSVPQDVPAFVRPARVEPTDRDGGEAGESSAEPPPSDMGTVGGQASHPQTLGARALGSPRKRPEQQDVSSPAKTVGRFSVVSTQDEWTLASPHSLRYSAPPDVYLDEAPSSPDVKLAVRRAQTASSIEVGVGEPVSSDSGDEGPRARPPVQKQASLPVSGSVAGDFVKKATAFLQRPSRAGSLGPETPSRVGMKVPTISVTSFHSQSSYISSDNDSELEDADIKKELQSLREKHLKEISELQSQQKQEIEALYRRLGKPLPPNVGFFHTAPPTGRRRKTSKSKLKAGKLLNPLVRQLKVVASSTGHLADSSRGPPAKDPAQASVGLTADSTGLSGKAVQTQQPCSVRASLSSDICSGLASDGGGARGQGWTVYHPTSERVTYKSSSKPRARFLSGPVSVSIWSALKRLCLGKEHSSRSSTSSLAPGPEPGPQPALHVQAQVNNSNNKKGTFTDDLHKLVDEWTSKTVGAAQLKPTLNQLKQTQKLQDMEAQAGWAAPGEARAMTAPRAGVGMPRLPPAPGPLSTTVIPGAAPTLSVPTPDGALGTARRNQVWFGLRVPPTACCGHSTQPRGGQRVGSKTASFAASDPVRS
# Chain of Casein kinase II subunit alpha (P68400 whole entry, looked up): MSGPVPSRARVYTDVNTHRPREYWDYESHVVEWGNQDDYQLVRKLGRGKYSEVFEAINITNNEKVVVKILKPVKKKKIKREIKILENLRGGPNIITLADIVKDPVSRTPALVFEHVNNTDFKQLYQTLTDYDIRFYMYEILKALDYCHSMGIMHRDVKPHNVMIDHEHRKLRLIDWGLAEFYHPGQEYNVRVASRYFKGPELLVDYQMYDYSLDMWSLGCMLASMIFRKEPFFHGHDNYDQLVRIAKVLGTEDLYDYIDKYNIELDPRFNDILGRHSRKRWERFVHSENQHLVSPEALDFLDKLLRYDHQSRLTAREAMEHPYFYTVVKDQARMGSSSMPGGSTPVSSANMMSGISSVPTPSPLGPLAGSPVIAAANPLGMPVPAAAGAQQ
# Chain of Serine/threonine-protein kinase 16 (O75716 whole entry): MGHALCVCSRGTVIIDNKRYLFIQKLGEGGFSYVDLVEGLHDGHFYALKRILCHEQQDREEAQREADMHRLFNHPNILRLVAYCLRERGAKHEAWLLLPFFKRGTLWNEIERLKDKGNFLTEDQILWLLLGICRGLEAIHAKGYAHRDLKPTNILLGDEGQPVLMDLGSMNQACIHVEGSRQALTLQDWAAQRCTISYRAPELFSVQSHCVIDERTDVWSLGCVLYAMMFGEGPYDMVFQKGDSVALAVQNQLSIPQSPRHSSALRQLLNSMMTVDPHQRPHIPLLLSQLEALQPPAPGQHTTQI
# Chain of Phosphatidylinositol 4,5-bisphosphate 3-kinase catalytic subunit gamma isoform (Homo sapiens) (P48736 whole entry, looked up, canonical isoform): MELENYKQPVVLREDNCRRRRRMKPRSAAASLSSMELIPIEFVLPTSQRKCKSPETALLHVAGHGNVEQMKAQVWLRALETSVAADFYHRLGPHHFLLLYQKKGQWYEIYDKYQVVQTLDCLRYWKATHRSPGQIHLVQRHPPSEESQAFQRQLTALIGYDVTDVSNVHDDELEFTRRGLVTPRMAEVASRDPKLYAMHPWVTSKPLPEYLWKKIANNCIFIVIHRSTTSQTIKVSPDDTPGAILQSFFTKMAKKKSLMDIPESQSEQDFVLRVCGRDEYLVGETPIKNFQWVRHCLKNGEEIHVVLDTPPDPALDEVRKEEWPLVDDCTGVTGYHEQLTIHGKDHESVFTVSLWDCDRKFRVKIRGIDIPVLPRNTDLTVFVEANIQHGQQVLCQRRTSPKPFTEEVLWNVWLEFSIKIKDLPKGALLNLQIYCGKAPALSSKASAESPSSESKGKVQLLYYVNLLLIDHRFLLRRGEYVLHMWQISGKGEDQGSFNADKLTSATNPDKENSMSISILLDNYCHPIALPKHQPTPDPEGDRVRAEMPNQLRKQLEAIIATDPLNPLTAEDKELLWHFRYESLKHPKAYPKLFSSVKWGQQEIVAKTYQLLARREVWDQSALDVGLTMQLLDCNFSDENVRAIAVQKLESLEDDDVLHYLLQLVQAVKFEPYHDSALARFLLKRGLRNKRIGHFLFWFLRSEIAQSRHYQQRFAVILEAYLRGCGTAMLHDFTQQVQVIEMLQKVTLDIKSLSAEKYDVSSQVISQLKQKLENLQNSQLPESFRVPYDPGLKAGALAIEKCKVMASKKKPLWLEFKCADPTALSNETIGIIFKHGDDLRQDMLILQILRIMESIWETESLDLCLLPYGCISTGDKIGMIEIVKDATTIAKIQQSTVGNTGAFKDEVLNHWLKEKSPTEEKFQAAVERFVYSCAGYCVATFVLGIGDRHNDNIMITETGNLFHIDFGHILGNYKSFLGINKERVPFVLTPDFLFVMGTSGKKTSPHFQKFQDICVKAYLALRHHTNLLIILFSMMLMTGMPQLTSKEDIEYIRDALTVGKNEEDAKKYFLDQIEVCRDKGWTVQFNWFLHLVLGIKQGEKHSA
structure (smiles),measurement,setting,value
COc1cc(Nc2nc(C)cc(-c3cnn4nc(OC)ccc34)n2)cc(C(F)(F)F)c1,% of control,[1],100%
same,% of control,[2],81%
same,% of control,[3],83%
O=C(NOC[C@H](O)CO)c1ccc(F)c(F)c1Nc1ccc(I)cc1F,% of control,[4],89%
N#Cc1cccc(-c2c[nH]c3ncnc(N4CCOCC4)c23)c1,% of control,[5],100%
Cc1ccc(-c2ccc3c(ccc4sc5c(c43)NC[C@@H](C)NC5=O)n2)cn1,% of inhibition,[6],-10%
same,% of inhibition,[7],12%
Cc1cc(F)c(C(=O)Nc2cccc(-c3nncn3C(C)C)n2)cc1-n1cnc(C2CC2)c1,% of control,[8],78%
same,% of control,[9],100%
Cn1cc(-n2cnc3c(NCc4nc5cc(Cl)c(Cl)cc5[nH]4)nc(N4CCOCC4)nc32)cn1,% of control,[10],0.309%
